The values that follow come from US20260069693A1, “UROLITHINS AND T-CELL MEDIATED IMMUNE RESPONSE” (priority 2022, published 2026).

In one assay the test system is Pgam5^−/− CD8^+ T cells. The experiment in a line: aCD3/aCD28 stimulation of Pgam5-/- T cells in presence of UA. The class given is cell-based, mice. The source says: Next the inventors examined whether the observed upregulation of TCF1 was a result of enhanced Wnt signalling. […] To explore whether Pgam5 may be involved in UA-induced Wnt activation, the inventors examined Pgam5 localization upon UA administration. […] More importantly, Pgam5 loss blocked the UA-dependent expansion of CD44^−CD62L^+Sca1^Hi TSCM cells (FIG. 5I).
(§1) Splenic murine T cells were isolated from mice aged 6-20 weeks by negative selection with EasySep mouse T cell isolation kit (Stem cell) according to the manufacturer's instructions. To monitor T cell proliferation, purified T cells were loaded with CellTrace Violet (C34557 ThermoFisher Scientific). T cell activation was initiated using αCD3/CD28 activation beads (11456D; ThermoFisher Scientific) at a ratio of 25 μl dynabeads per 0.5×10^6 T-cells. Cells were activated with 25-50 μM Urolithin A (Tocris) or DMSO in T cell activation Medium (RPMI (ThermoFisher Scientific) 10% FBS (South America origin), 10 mM Hepes (Sigma), 1× Non-Essential Amino Acid, 1 mM Sodium Pyruvate, 50 μM B-Mercaptoethanol, 100 U/ml penicillin, 100 μg/ml streptomycin and 2 mM Glutamax (ThermoFisher Scientific) for the indicated durations. In selected experiments, cells were stimulated in the presence of inhibitors, namely TCF1i (ICG-001; SelleckChem; 10 μM) and PGC-1αi (SR-18292, Sigma-Aldrich; 10 μm,). For subsequent analysis, activating beads were magnetically removed prior antibody staining. For human T cells, peripheral blood mononuclear cells were purified with a Ficoll-Paque (GE healthcare) gradient. T cells were enriched with EasySep Human T Cell Isolation Kit (StemCell) and activated with dynabead Human T-Activator CD3/CD28 for T Cell Expansion and Activation Kit (11131D; ThermoFisher Scientific), similar to murine T cell stimulation.
(§2) For flow cytometric analysis of mitochondria and lysosomes 500 μl of Mitotracker Red (200 nM; ThermoFisher) or Lysotracker Red DND-99 (75 nM; ThermoFisher) were applied followed by surface staining. To study changes in mitochondrial membrane potential, Mitoprobe TMRM kit (ThermoFisher) was used according to the manufacturer's instructions. Cell proliferation was assessed by CellTrace Violet (Invitrogen, C34557) at a concentration of 5 μM according to manufacturer's instructions. For human samples, cells were stained as described above with Fixable Viability Dye-eF780, αCD95-BV421 (DX2; 562616), αCD62L-PE (DREG-56; 555544), αCCR7-AF700 (150503; 561143), αCD45RO-APC (UCHL; 559865), αCD45RA-FITC (HI100; 555488), αCD8-PE-CF594 (RPA-T8; 562282) and αCD4-BV786 (OKT4; 566806) from BD.

The next assay has as its system Nalm-6 cells. Nature of the assay: CD19-CAR T cell killing assay. The class given is cell-based, human. Particulars: 24 h co-culture, CAR T cells generated with UA vs DMSO. As to the method: The cytotoxic activity of CD19-CAR T cells generated in presence or absence of UA was determined by CD19-positive Nalm-6 cell killing. Three days post transduction, CAR expression was determined and normalized to equal CAR T cell levels. Cells were washed twice and 0.5×10^4 CAR T cells were seeded into NutriT medium without cytokines, UA or DMSO. Nalm-6 cells were labeled using CellTrace™ Violet (CTV; Thermo Fisher Scientific, C34557) following manufacturer's instructions and 1×10^4 labeled Nalm-6 cells were added to the CAR T cells (0.5:1 effector to target ratio). The amount of dead target cells was determined via flow cytometry 24 h after start of killing.

A further assay relates to C. elegans. Particulars: cited from earlier work.
In a further assay the test system is human CD3^+ T cells. The experiment in a line: aCD3/aCD28 stimulation of human T cells in presence of UA. The class given is cell-based.
Source text: Finally, the inventors aimed to determine whether UA causes expansion of TSCM cells in human CD8^+ T cells. The inventors isolated human CD3^+ T cells from PBMCs of healthy donors and stimulated them with aCD3/aCD28 beads in vitro in the presence of UA (FIG. 6A). Indeed, UA increased the frequency of human TSCM cells based on the expression of CD45RA^+CCR7^HiCD62L^+CD95^+CD8^+ in five out of five individual donors (FIG. 6B).
as §1, with “T cells were enriched with EasySep Human T Cell Isolation Kit (StemCell) and activated with dynabead Human T-Activator CD3/CD28 for T Cell Expansion and Activation Kit (11131D; ThermoFisher Scientific), similar to murine T cell stimulation.” left out
For flow cytometric analysis of mitochondria and lysosomes 500 μl of Mitotracker Red (200 nM; ThermoFisher) or Lysotracker Red DND-99 (75 nM; ThermoFisher) were applied followed by surface staining. […] Cell proliferation was assessed by CellTrace Violet (Invitrogen, C34557) at a concentration of 5 μM according to manufacturer's instructions. […]

The conditions of assay [1]: cited from earlier work.
Assay [2] concerns CEA-expressing human CRC organoids. Nature of the assay: CEA-CAR T cell killing of CRC organoids. In kind it is cell-based. Particulars: 72 h co-culture, UA vs DMSO. As to the method: In human CRC organoids, CEA-expression was confirmed by flow cytometry […]CEACAM5-APC (487609; FAB41281A; R&D Systems) Before co-culture, CEA-CAR T cells were cultivated in presence or absence of UA for three days. The cytotoxicity assay was performed as described (Schnalzger et al., 2019), using 96 well plates coated with 15 μl Cultrex Basement Membrane Extract, Type 2 per well and organoids were seeded at a ratio of 1:8. Co-culture was performed for three days with 0.5×10^4 CAR T cells per well resuspended in organoid medium (as described above) without IL7/IL15. 100 μl luciferase assay reagent composed of 10% One-Glo EX Reagent (Promega) in lysis buffer (50 mM NaCl, 50 mM Tris-HCl pH 7.4, 1% Triton X-100) was added to each well and incubated at room temperature for 1 h protected from light. 100 μl of each sample was transferred to an opaque 96-well microtiter plate and measured using a SpectraMax iD3 microplate reader (Molecular Devices).

The next assay deals with Pink1^−/− T cells. The experiment in a line: aCD3/aCD28 stimulation of Pink1-/- T cells in presence of UA. The class given is cell-based, mice.
Source text: UA activates mitophagy in myocytes and hippocampal neurons via a Pink1/Parkin mediated stress-response (D'Amico et al., 2021). […] Moreover, UA stabilized Parkin protein expression (FIG. 4G). To functionally confirm the dependence of UA induced TSCM formation on Pink1/Parkin mediated mitophagy, the inventors activated Pink1^−/− T cells in the presence or absence of UA. Loss of Pink1 prevented the UA-induced lysosome formation as well as the decrease in mitochondrial content (FIG. 4H, I).
as §1, §2

Where [3] appears, read: UA treated Pgam5-/- CD8+ T cells, 48 h.

`O=c1oc2cc(O)ccc2c2ccc(O)cc12` [UA, Urolithin A]: in the assay on Pgam5^−/− CD8^+ T cells (Pgam5-/- CD8+ T cells), the lysosome formation entry is “still enhanced” and the mitochondrial content entry is given as “reduced”. Further, the PGC-1a entry with Pgam5^−/− CD8^+ T cells (Pgam5-/- CD8+ T cells, 48 h, UA 50 μM) is reported as “failed to enhance”. Also, the “UA-dependent expansion of CD44-CD62L+Sca1Hi TSCM cells” value in the assay with Pgam5^−/− CD8^+ T cells (Pgam5 loss, 48 h) is “blocked”. Besides, in the assay with Pgam5^−/− CD8^+ T cells (setting [3]), the TCF1 result was “failed to upregulate” and the “memory marker CD95” value is given as “failed to upregulate”. Besides, in the assay on Nalm-6 cells, the “CD19 CAR-T cell mediated killing of NALM-6 leukemia cells” value is on record as “did not have a negative impact”. In the assay with C. elegans, the lifespan entry is recorded as “prolonged lifespan” and the mitochondrial content entry was “higher mitochondrial content”. For the same molecule, in the assay with human CD3^+ T cells (48 h, UA 50 μM, five out of five individual donors), the “frequency of human TSCM cells (CD45RA+CCR7HiCD62L+CD95+CD8+)” value is listed as “increased”. The “TCF1 expression in human CD8+ T cells” value with human CD3^+ T cells (48 h, intracellular staining) is on record as “increased”. Further, in the assay on human CD3^+ T cells (after 48 hours), the “mitochondrial membrane potential of human CD8+ T cells” value is on record as “decreased”. Besides, in assay [1] (Rodents fed with a UA-high diet), the muscle function entry was “superior muscle function”. The “muscle function in mice with Duchenne muscular dystrophy” value in assay [1] (UA-high diet) was “recovery of muscle function”. Further, the “killing efficacy of CEA-expressing human CRC organoids” value in assay [2] is on record as “comparable killing efficacy”. Moreover, in the assay on Pink1^−/− T cells (Loss of Pink1, 6 h, UA 50 μM), the UA-induced lysosome formation result is given as “prevented”. In addition, in the assay on Pink1^−/− T cells (Loss of Pink1, 48 h, UA 50 μM), the “UA-induced decrease in mitochondrial content” value is listed as “prevented”. Also, the “cytoplasmic expression of Pgam5” value with Pink1^−/− T cells (Pink1-/- CD8+ T cells upon UA exposure) is “lack of cytoplasmic expression”. The PGC-1a entry in the assay with Pink1^−/− T cells (Pink1-/- CD8+ T cells, 48 h, UA 50 μM) is “failed to enhance”. The TSCM phenotype entry in the assay on Pink1^−/− T cells (Pink1-/- CD8+ T cells, 48 h, UA 25 and 50 μM) was “failed to exhibit a TSCM phenotype”. Further, the “TCF-1 in CD44-CD62L+CD8+ T cells” value in the assay with Pink1^−/− T cells (Pink1-/-, 48 h, UA 50 μM) is “less”.
